{"source": "paper PMC12598851", "about": "“Exploiting Avidity Effects for the Discovery of Low Affinity Protein-Binding Fragments” (Journal of Medicinal Chemistry, 2025)", "key": {"[1]": {"target": "T1, Streptavidin (SA) (Streptomyces avidinii, UniProt P22629)", "T1 construct": "purchased", "T1 sequence (P22629 25-183, species assumed)": "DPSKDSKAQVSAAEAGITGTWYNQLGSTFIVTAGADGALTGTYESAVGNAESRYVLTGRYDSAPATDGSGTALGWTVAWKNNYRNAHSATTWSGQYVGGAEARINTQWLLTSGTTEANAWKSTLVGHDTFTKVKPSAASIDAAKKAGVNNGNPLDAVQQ", "assay": "SPR, soluble compound binding to immobilized streptavidin", "conditions": "soluble mini-PEG attached compound, immobilized SA; read-out: KD (SPR)", "protocol": "The SPR binding affinity testing was conducted using the BIAcore 1K system (Cytiva) with BIAcore Insight Control Software. Streptavidin (50 μg/mL in 10 mM pH 5.0 NaOAc) was immobilized on a CM5 sensor chip (Cytiva) via amide coupling, using HBS-EP+ (10 mM HEPES, 150 mM NaCl, 3 mM EDTA, and 0.05% v/v Surfactant P20) as the immobilization buffer. Approximately 1000 RU of immobilization was achieved. Testing compounds were evaluated using the multiple-cycle kinetic/affinity method in PBS-P+ running buffer (20 mM phosphate buffer, 2.7 mM KCl, 137 mM NaCl, and 0.05% Surfactant P20), with a 200 s association time, 200 s dissociation time, and a flow rate of 45 μL/min. Binding affinities for the testing compounds were determined by fitting the sensor grams to both the 1:1 binding kinetics and steady-state affinity models provided in the BIAcore Insight Evaluation Software."}, "[2]": {"target": "T2, SA-647 (Streptomyces avidinii, UniProt P22629)", "T2 construct": "purchased ThermoFisher S3235", "T2 sequence (P22629 37-163 limits assumed)": "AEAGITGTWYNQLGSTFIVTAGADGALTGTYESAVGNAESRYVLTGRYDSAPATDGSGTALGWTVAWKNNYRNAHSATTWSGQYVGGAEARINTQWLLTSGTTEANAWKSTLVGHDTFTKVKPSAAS", "assay": "Pooled bead library screen against SA-647 by FACS with LC-MS hit identification", "assay_type": "binding", "conditions": "about 50-plex pooled beads, SA-647 500 nM, IP+-modified derivatives", "description": "While the one compound per well screening format employed for the Figures and experiments works well, it will limit throughput for the analysis of much larger fragment libraries in the future. […] A photocleavable linker was placed between the fragment and the bead (Figure a). Beads displaying compounds 2, 3, and the oxazole analog of compound 2 were also constructed with the same architecture. Beads displaying all of these compounds were then mixed together in a single Mobicol tube (approximately 25,000 of each bead type).\nThe resin was incubated with SA-647 (500 nM, 300 μL) for 1 h at room temperature with gentle rotation.\nPrior to releasing the compounds from the resin for analysis, we “clicked” a brominated imidazopyridinium unit (IP^+) to the alkyne unit in the linker of these beads via copper-catalyzed azide–alkyne cycloaddition (Figure a,c insert). This was done for three reasons. The first was to add a chromophore to molecules so that, after release from the beads, they could be detected sensitively using a UV detector on the LC trace. […]\nAfter attachment of the IP^+ tag, the beads were washed with a 1:1 mixture of DMF and DCM and irradiated at 365 nm (4.5 × 10^3 μJ cm^–2) for 1 h in a 3:1 DCM/MeOH mixture to release the ligands from the beads. After evaporation of solvents, the eluate was redissolved in water and analyzed by LC-MS. […]"}}}
{"smiles": "CC(=O)N(Cc1cccnc1)Cc1nc(C(=O)N(C)CC(=O)NCCOCCOCC(=O)NCC(N)=O)cs1", "note": "[Compound 2]", "values": [{"measurement": "Kd", "setting": "[1]", "value": 706, "unit": "µM"}, {"measurement": "recovery in sorted hit pool (LC-MS peak)", "setting": "[2]", "value": "major peak"}]}
